Laboratory results from patent US12258328B2, “6-membered heteroaryl-containing aminopyridine compounds as EGFR inhibitors” (YUHAN CORPORATION, priority 2021, dated 2025).
Like-named read-outs stand apart in the source and are kept apart here.

Experiments:
EGFR del19/T790M/C797S = EGFR del19/T790M/C797S (Homo sapiens, UniProt P00533, C797S/DEL746-750/T790M); assay: Biochemical EGFR kinase assay (Lance Ultra TR-FRET), triple mutant del19/T790M/C797S
How it was run: (§1)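 Step 1: compound in kinase buffer, 0.003–10 μM. Step 2: kinase reaction 1 h at room temperature. Step 4: TR-FRET read at 615/665 nm; IC50 calculated.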

EGFR L858R/T790M/C797S = EGFR L858R/T790M/C797S (Homo sapiens, UniProt P00533, C797S/L858R/T790M); assay: Biochemical EGFR kinase assay (Lance Ultra TR-FRET), triple mutant L858R/T790M/C797S
How it was run: as §1

EGFR del19/C797S = EGFR del19/C797S (Homo sapiens, UniProt P00533, C797S/DEL746-750); assay: Biochemical EGFR kinase assay (Lance Ultra TR-FRET), double mutant del19/C797S
How it was run: as §1

EGFR L858R/C797S = EGFR L858R/C797S (Homo sapiens, UniProt P00533, C797S/L858R); assay: Biochemical EGFR kinase assay (Lance Ultra TR-FRET), double mutant L858R/C797S
How it was run: as §1

EGFR wildtype = EGFR wildtype (Homo sapiens, UniProt P00533); assay: Biochemical EGFR kinase assay (Lance Ultra TR-FRET), wildtype
How it was run: as §1

[1] = ATP at Km, read-out: IC50 del19/T790M/C797S, Km ATP
[2] = ATP at Km, read-out: IC50 L858R/T790M/C797S, Km ATP
[3] = ATP at Km, read-out: IC50 del19/C797S, Km ATP
[4] = ATP at Km, read-out: IC50 L858R/C797S, Km ATP
[5] = ATP at Km, read-out: IC50 WT, Km ATP
[6] = IC50 del19/T790M/C797S, 100 μM ATP
[7] = IC50 L858R/T790M/C797S, 100 μM ATP

Sequence of EGFR L858R/T790M/C797S (P00533 25-1210 T790M/C797S/L858R): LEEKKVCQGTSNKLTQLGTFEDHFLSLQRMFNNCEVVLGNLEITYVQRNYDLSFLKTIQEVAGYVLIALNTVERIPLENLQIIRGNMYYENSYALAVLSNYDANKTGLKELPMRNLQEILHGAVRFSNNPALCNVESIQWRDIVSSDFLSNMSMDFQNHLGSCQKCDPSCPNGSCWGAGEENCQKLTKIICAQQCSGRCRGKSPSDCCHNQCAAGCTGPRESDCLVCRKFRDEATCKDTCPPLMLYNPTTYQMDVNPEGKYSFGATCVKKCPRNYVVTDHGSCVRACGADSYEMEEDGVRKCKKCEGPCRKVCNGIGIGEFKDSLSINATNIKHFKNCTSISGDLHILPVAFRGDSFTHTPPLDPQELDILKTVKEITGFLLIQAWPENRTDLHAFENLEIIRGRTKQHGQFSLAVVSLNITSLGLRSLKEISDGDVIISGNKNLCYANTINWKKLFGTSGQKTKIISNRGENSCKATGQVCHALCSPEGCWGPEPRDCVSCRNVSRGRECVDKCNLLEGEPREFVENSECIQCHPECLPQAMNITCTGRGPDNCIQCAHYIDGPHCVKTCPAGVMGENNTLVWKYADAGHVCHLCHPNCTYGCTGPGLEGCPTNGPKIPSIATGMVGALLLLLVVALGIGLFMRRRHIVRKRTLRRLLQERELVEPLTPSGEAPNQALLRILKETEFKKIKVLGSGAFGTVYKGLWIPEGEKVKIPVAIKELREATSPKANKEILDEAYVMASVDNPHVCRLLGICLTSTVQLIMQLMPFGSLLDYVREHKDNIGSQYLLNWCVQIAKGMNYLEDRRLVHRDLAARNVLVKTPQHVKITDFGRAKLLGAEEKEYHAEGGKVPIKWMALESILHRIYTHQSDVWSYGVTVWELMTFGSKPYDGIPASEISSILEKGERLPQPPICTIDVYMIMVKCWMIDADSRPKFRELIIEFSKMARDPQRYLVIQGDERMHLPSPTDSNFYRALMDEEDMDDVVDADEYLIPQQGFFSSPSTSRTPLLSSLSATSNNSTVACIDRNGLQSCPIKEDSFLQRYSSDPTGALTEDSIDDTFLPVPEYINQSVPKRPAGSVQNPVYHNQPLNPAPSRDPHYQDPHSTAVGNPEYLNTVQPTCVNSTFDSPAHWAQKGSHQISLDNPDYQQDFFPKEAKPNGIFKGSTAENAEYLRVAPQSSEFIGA
Sequence of EGFR L858R/C797S (P00533 25-1210 C797S/L858R): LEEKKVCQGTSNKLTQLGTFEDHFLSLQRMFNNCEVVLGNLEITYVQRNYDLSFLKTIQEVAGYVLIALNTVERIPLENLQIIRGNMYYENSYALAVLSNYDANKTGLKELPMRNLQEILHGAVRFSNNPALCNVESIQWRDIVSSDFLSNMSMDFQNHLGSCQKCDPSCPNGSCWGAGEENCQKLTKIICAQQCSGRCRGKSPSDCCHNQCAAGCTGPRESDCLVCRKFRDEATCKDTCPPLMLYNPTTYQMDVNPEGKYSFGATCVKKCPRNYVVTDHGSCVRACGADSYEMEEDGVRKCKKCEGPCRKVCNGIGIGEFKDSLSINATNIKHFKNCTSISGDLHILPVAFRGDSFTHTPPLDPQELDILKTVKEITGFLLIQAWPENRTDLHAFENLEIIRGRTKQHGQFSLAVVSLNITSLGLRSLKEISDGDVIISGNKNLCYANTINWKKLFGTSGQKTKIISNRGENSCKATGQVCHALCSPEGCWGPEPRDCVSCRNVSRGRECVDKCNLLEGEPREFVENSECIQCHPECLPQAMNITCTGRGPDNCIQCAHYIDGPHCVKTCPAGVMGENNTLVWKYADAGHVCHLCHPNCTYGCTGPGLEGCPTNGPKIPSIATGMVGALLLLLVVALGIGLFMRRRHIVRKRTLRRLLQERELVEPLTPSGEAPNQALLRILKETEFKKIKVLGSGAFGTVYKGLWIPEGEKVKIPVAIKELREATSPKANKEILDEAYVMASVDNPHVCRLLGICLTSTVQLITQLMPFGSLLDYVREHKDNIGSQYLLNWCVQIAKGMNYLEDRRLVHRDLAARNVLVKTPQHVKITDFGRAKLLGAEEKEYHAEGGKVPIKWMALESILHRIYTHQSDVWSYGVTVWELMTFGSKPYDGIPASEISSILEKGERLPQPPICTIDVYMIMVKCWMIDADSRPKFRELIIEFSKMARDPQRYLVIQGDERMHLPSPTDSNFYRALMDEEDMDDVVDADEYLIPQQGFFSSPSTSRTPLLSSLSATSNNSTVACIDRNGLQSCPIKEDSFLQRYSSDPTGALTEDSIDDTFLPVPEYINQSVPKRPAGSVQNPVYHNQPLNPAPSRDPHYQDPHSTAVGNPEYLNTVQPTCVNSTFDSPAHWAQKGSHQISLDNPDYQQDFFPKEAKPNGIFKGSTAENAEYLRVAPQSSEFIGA
Sequence of EGFR del19/C797S (P00533 with tags, fused parts or gaps DEL746-750/C797S): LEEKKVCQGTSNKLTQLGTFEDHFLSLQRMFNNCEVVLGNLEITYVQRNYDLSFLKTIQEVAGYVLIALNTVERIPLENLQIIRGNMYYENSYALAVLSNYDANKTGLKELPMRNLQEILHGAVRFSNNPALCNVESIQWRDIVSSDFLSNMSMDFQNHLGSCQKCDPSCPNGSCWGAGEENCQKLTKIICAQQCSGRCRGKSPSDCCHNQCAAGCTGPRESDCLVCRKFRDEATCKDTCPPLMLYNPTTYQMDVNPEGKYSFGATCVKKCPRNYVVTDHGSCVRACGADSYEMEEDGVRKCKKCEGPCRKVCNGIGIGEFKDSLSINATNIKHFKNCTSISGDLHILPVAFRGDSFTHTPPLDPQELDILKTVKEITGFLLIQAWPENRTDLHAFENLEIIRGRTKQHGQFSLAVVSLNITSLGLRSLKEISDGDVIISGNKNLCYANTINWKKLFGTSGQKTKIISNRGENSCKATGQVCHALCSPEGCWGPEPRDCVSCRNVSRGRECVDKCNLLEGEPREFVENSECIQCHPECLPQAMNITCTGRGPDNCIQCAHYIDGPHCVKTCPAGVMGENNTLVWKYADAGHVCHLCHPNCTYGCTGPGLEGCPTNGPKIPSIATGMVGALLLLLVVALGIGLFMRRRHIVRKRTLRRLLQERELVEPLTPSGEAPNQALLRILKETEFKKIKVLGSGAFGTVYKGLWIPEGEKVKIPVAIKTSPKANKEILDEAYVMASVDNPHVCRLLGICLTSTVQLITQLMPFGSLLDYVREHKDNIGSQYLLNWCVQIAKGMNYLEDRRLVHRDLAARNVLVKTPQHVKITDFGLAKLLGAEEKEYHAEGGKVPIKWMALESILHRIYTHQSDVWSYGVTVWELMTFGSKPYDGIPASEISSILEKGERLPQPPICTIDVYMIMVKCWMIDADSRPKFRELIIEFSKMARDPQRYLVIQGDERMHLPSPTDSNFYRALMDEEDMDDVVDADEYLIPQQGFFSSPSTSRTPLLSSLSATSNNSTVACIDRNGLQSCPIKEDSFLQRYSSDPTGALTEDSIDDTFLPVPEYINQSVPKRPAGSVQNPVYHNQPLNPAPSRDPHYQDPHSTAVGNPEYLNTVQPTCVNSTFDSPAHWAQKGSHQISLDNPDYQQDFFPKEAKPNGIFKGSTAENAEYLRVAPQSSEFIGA
Sequence of EGFR del19/T790M/C797S (P00533 with tags, fused parts or gaps DEL746-750/T790M/C797S): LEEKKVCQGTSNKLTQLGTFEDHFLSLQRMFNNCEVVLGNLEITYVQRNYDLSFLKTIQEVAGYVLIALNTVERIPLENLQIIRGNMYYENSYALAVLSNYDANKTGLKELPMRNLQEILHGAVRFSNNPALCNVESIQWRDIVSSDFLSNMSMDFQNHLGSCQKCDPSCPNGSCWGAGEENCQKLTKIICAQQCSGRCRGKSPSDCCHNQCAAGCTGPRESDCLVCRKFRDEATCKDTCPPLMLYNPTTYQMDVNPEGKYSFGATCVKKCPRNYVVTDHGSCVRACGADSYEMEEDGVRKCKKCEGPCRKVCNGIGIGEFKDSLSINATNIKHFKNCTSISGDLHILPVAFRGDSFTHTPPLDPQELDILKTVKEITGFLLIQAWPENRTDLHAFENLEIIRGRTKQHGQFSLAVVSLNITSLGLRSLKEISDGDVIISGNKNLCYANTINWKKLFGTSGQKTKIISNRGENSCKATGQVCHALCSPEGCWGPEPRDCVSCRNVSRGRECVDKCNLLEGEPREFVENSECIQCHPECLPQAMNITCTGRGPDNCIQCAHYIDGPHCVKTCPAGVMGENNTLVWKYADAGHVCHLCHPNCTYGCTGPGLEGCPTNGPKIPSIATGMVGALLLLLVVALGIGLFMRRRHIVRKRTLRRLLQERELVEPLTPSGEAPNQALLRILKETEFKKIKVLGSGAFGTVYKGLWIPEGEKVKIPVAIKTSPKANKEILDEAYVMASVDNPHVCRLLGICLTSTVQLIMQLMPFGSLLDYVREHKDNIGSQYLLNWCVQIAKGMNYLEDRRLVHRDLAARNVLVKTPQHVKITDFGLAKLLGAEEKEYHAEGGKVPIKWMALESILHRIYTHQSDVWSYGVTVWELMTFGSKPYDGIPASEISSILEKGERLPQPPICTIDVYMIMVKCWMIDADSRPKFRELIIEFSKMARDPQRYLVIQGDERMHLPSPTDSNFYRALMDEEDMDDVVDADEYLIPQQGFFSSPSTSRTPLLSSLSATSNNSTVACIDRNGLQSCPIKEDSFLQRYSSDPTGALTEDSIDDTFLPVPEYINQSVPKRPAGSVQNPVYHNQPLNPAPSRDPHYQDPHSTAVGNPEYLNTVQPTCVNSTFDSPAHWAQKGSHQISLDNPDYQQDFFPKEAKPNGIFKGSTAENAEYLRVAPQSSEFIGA

| Structure (SMILES) | IC50 (EGFR del19/T790M/C797S; [1]) [nM] | IC50 (EGFR L858R/T790M/C797S; [2]) [nM] | IC50 (EGFR del19/C797S; [3]) [nM] | IC50 (EGFR L858R/C797S; [4]) [nM] | IC50 (EGFR wildtype; [5]) [nM] | IC50 (EGFR del19/C797S; IC50 del19/C797S, 100 μM ATP) [nM] | IC50 (EGFR L858R/C797S; IC50 L858R/C797S, 100 μM ATP) [nM] | IC50 (EGFR wildtype; IC50 WT, 100 μM ATP) [nM] | IC50 (EGFR del19/T790M/C797S; [6]) [nM] | IC50 (EGFR L858R/T790M/C797S; [7]) [nM] |
| --- | --- | --- | --- | --- | --- | --- | --- | --- | --- | --- |
| CC(C)(O)c1ccc(-c2cnc(Nc3ccnc(-c4cnn(S(=O)(=O)C5CC5)c4)n3)cc2NC2CCC(F)(F)CC2)nc1 [Example 175, 2-(6′-((2-(1-(Cyclopropylsulfonyl)-1H-pyrazol-4-yl)pyrimidin-4-yl)amino)-4′-((4,4-difluorocyclohexyl)amino)-[2,3′-bipyridin]-5-yl)propan-2-ol] | 2.4 | 1.1 | 20.4 | 3.9 | 90.3 |  |  |  |  |  |
| CC(C)(O)c1ccc(-c2cnc(Nc3ccnc(-c4cnn(S(=O)(=O)C5CC5)c4)n3)cc2NC2CCCN(CCF)C2)nc1 (stereo not shown) [Example 177, 2-(6′-((2-(1-(Cyclopropylsulfonyl)-1H-pyrazol-4-yl)pyrimidin-4-yl)amino)-4′-((1-(2-fluoroethyl)piperidin-3-yl)amino)-[2,3′-bipyridin]-5-yl)propan-2-ol] | 0.9 | 1.9 | 3.7 | 9 | 40.5 |  |  |  |  |  |
| CC(C)(O)c1ccc(-c2cnc(Nc3ccnc(-c4cnn(S(=O)(=O)C5CC5)c4)n3)cc2NC2CCN(CC(F)F)CC2)nc1 [Example 178, 2-(6′-((2-(1-(Cyclopropylsulfonyl)-1H-pyrazol-4-yl)pyrimidin-4-yl)amino)-4′-((1-(2,2-difluoroethyl)piperidin-4-yl)amino)-[2,3′-bipyridin]-5-yl)propan-2-ol] | 0.7 | 1 | 2.6 | 4.7 | 96.5 |  |  |  |  |  |
| Cc1ccc(-c2cnc(Nc3ccnc(-c4cnn(S(=O)(=O)C5CC5)c4)n3)cc2N[C@H]2CC[C@@H](C(C)(C)O)CC2)nc1F [Example 180, 2-((1s,4s)-4-((6′-((2-(1-(Cyclopropylsulfonyl)-1H-pyrazol-4-yl)pyrimidin-4-yl)amino)-6-fluoro-5-methyl-[2,3′-bipyridin]-4′-yl)amino)cyclohexyl)propan-2-ol] | 5.8 | 2.5 | 6 | 12 | 47.5 | 30.7 | 67.7 | > 10000 | 8.5 | 9.1 |
| CC1CCN(S(=O)(=O)c2ccc(-c3cnc(Nc4ccnc(-c5cnn(S(=O)(=O)C6CC6)c5)n4)cc3N[C@H]3CC[C@@H](C(C)(C)O)CC3)nc2)CC1 [Example 187, 2-((1s,4s)-4-((6′-((2-(1-(Cyclopropylsulfonyl)-1H-pyrazol-4-yl)pyrimidin-4-yl)amino)-5-((4-methylpiperidin-1-yl)sulfonyl)-[2,3′-bipyridin]-4′-yl)amino)cyclohexyl)propan-2-ol] |  |  |  |  |  | 178 | 1950 | > 10000 | 239 | 96.9 |
| CN1CCN(S(=O)(=O)c2ccc(-c3cnc(Nc4ccnc(-c5cnn(S(=O)(=O)C6CC6)c5)n4)cc3N[C@H]3CC[C@@](C)(O)CC3)nc2)CC1 [Example 188, (1s,4s)-4-((6′-((2-(1-(Cyclopropylsulfonyl)-1H-pyrazol-4-yl)pyrimidin-4-yl)amino)-5-((4-methylpiperazin-1-yl)sulfonyl)-[2,3′-bipyridin]-4′-yl)amino)-1-methylcyclohexan-1-ol] |  |  | 2.3 | 0.8 | 9.5 | 1.8 | 11.3 | > 10000 | 1.1 | 1 |
| CN1CCN(S(=O)(=O)c2ccc(-c3cnc(Nc4ccnc(-c5cnn(S(=O)(=O)C6CC6)c5)n4)cc3N[C@H]3CC[C@@H](CO)CC3)nc2)CC1 [Example 189, ((1s,4s)-4-((6′-((2-(1-(Cyclopropylsulfonyl)-1H-pyrazol-4-yl)pyrimidin-4-yl)amino)-5-((4-methylpiperazin-1-yl)sulfonyl)-[2,3′-bipyridin]-4′-yl)amino)cyclohexyl)methanol] |  |  | 2.2 | 0.9 | 6.9 | 1.7 | 7.9 | 1770 | 1.4 | 0.8 |
| C[C@]1(O)CC[C@@H](Nc2nccc(-c3cnc(Nc4ccnc(-c5cnn(S(=O)(=O)C6CC6)c5)n4)cc3N[C@H]3CC[C@@](C)(O)CC3)n2)CC1 [Example 191, (1s,4s)-4-((4-(6-((2-(1-(Cyclopropylsulfonyl)-1H-pyrazol-4-yl)pyrimidin-4-yl)amino)-4-(((1s,4s)-4-hydroxy-4-methylcyclohexyl)amino)pyridin-3-yl)pyrimidin-2-yl)amino)-1-methylcyclohexan-1-ol] | 1 | 0.3 | 2.3 | 1.6 | 27.4 | 6.5 | 26.4 | > 10000 | 1.7 |  |

Results, then the compound that gave them:

| IC50 (EGFR del19/T790M/C797S; [1]) [nM] | IC50 (EGFR L858R/T790M/C797S; [2]) [nM] | IC50 (EGFR del19/C797S; [3]) [nM] | IC50 (EGFR L858R/C797S; [4]) [nM] | IC50 (EGFR wildtype; [5]) [nM] | IC50 (EGFR del19/C797S; IC50 del19/C797S, 100 μM ATP) [nM] | IC50 (EGFR L858R/C797S; IC50 L858R/C797S, 100 μM ATP) [nM] | IC50 (EGFR wildtype; IC50 WT, 100 μM ATP) [nM] | IC50 (EGFR del19/T790M/C797S; [6]) [nM] | IC50 (EGFR L858R/T790M/C797S; [7]) [nM] | Structure (SMILES) |
| --- | --- | --- | --- | --- | --- | --- | --- | --- | --- | --- |
| 1.8 | 0.9 | 7.9 | 1.6 | 23.2 |  |  |  |  |  | CC(C)(O)c1ccc(-c2cnc(Nc3ccnc(-c4cnn(S(=O)(=O)C5CC5)c4)n3)cc2N[C@H]2CC[C@@H](F)CC2)nc1 [Example 173, 2-(6′-((2-(1-(Cyclopropylsulfonyl)-1H-pyrazol-4-yl)pyrimidin-4-yl)amino)-4′-(((1s,4s)-4-fluorocyclohexyl)amino)-[2,3′-bipyridin]-5-yl)propan-2-ol] |
| 2.5 | 1.1 | 7.7 | 1.8 | 23.4 |  |  |  |  |  | CC(C)(O)c1ccc(-c2cnc(Nc3ccnc(-c4cnn(S(=O)(=O)C5CC5)c4)n3)cc2NC2CCC(F)CC2)nc1 (stereo not shown) [Example 174, 2-(6′-((2-(1-(Cyclopropylsulfonyl)-1H-pyrazol-4-yl)pyrimidin-4-yl)amino)-4′-((4-fluorocyclohexyl)amino)-[2,3′-bipyridin]-5-yl)propan-2-ol] |
| 0.9 | 0.4 | 0.6 |  | 4.1 | 2.8 | 3.6 | > 10000 |  |  | Cc1ccc(-c2cnc(Nc3ccnc(-c4cnn(S(=O)(=O)C5CC5)c4)n3)cc2N[C@H]2CC[C@@](C)(O)CC2)nc1F [Example 179, (1s,4s)-4-((6′-((2-(1-(Cyclopropylsulfonyl)-1H-pyrazol-4-yl)pyrimidin-4-yl)amino)-6-fluoro-5-methyl-[2,3′-bipyridin]-4′-yl)amino)-1-methylcyclohexan-1-ol] |
| 5.5 | 2.2 | 16.2 | 19.7 | 129 | 41.5 | 157 | > 10000 | 10 | 20.3 | C[C@]1(O)CC[C@@H](Nc2cc(Nc3ccnc(-c4cnn(S(=O)(=O)C5CC5)c4)n3)ncc2-c2ccc(C(F)(F)F)c(F)n2)CC1 [Example 181, (1s,4s)-4-((6′-((2-(1-(Cyclopropylsulfonyl)-1H-pyrazol-4-yl)pyrimidin-4-yl)amino)-6-fluoro-5-(trifluoromethyl)-[2,3′-bipyridin]-4′-yl)amino)-1-methylcyclohexan-1-ol] |
| 9.1 |  | 2.7 | 2.2 | 15.2 | 12.2 | 12.9 | > 10000 | 2.8 | 0.8 | CC(C)(O)[C@H]1CC[C@@H](Nc2cc(Nc3ccnc(-c4cnn(S(=O)(=O)C5CC5)c4)n3)ncc2-c2ccc(S(=O)(=O)N3CCOCC3)cn2)CC1 [Example 184, 2-((1s,4s)-4-((6′-((2-(1-(Cyclopropylsulfonyl)-1H-pyrazol-4-yl)pyrimidin-4-yl)amino)-5-(morpholinosulfonyl)-[2,3′-bipyridin]-4′-yl)amino)cyclohexyl)propan-2-ol] |
| 2 |  | 6.7 | 3 | 111 | 20.3 | 32.1 | > 10000 | 8.3 | 1.9 | C[C@]1(O)CC[C@@H](Nc2cc(Nc3ccnc(-c4cnn(S(=O)(=O)C5CC5)c4)n3)ncc2-c2cnc(F)cn2)CC1 [Example 185, (1s,4s)-4-((2-((2-(1-(Cyclopropylsulfonyl)-1H-pyrazol-4-yl)pyrimidin-4-yl)amino)-5-(5-fluoropyrazin-2-yl)pyridin-4-yl)amino)-1-methylcyclohexan-1-ol] |
| 3.8 |  | 11.5 | 5.8 | 744 | 56.8 | 165 | > 10000 | 29 | 4.8 | CC(C)(O)[C@H]1CC[C@@H](Nc2cc(Nc3ccnc(-c4cnn(S(=O)(=O)C5CC5)c4)n3)ncc2-c2cnc(F)cn2)CC1 [Example 186, 2-((1s,4s)-4-((2-((2-(1-(Cyclopropylsulfonyl)-1H-pyrazol-4-yl)pyrimidin-4-yl)amino)-5-(5-fluoropyrazin-2-yl)pyridin-4-yl)amino)cyclohexyl)propan-2-ol] |
